Tests used:
HCT116 cell line = assay: In vitro antiproliferative activity, MTT assay, HCT116; assay type: cell-based; settings: Homo sapiens, HCT-116, 48 h
Protocol: (§1) HCT116, MCF-7 and B16 cell lines were plated on 96-well plates at a density of 5000 per well and incubated overnight. […] After 48 h, 0.5% MTT (Amresco, Solon, OH, USA) solution was added to each well, and further incubation for 4 h, then cells were centrifuged at 2500 rpm for 15 min and removed from the culture medium. And add 150 μL DMSO to dissolve the formazan. After mixing for 5 min, optical density was detected at 570 nm on a microplate reader (Thermo, Waltham, MA, USA).

MCF-7 cell line = assay: In vitro antiproliferative activity, MTT assay, MCF-7; assay type: cell-based; settings: Homo sapiens, MCF7, 48 h
Protocol: as §1

B16 cell line = assay: In vitro antiproliferative activity, MTT assay, B16; assay type: cell-based; settings: Mus musculus, 48 h
Protocol: as §1

EGFR = EGFR (Homo sapiens, UniProt P00533); assay: EGFR inhibitory assay (caliper mobility shift assay)
Protocol: (§2) Each of these compounds was dissolved in DMSO at 10 mM, diluted to 50× of the final desired highest inhibitor concentration in reaction by 100% DMSO, and 100 μL of each dilution was added to one well on 96-well storage plate, and diluted by transferring 10 μL to 90 μL of 100% DMSO in the next well. Besides, 100 μL of 100% DMSO was added to two empty wells for no compound control and no enzyme control in the same 96-well plate respectively. The plate was marked as source plate. 10 μL of each compound was transferred from the source plate to a new 96-well plate, which was marked as the intermediate plate. Next, 90 μL of 1× kinase base buffer was added to each well of the intermediate plate, and mixed by shaking vigorously for 10 min. A total of 5 μL of each well from the 96-well intermediate plate was transferred to a 384-well plate in duplicate.
(§3) Kinase reaction: kinase in 1× kinase base buffer, FAM-labeled peptide and ATP in the 1× kinase base buffer were added, then 10 μL of 2.5× enzyme solution was added to each well of the 384-well assay plate. After incubating at room temperature for 10 min, 10 μL of 2.5× peptide solution was added to each well of the 384-well assay plate. […] Finally, the kinase reactions were quenched with 25 μL of EDTA and the plates were washed. The dates were collected and converted with the caliper program.

VEGFR-2 = VEGFR-2 (Homo sapiens, UniProt P35968); assay: VEGFR-2 inhibitory assay (caliper mobility shift assay)
Sequence of VEGFR-2 (P35968 20-1356): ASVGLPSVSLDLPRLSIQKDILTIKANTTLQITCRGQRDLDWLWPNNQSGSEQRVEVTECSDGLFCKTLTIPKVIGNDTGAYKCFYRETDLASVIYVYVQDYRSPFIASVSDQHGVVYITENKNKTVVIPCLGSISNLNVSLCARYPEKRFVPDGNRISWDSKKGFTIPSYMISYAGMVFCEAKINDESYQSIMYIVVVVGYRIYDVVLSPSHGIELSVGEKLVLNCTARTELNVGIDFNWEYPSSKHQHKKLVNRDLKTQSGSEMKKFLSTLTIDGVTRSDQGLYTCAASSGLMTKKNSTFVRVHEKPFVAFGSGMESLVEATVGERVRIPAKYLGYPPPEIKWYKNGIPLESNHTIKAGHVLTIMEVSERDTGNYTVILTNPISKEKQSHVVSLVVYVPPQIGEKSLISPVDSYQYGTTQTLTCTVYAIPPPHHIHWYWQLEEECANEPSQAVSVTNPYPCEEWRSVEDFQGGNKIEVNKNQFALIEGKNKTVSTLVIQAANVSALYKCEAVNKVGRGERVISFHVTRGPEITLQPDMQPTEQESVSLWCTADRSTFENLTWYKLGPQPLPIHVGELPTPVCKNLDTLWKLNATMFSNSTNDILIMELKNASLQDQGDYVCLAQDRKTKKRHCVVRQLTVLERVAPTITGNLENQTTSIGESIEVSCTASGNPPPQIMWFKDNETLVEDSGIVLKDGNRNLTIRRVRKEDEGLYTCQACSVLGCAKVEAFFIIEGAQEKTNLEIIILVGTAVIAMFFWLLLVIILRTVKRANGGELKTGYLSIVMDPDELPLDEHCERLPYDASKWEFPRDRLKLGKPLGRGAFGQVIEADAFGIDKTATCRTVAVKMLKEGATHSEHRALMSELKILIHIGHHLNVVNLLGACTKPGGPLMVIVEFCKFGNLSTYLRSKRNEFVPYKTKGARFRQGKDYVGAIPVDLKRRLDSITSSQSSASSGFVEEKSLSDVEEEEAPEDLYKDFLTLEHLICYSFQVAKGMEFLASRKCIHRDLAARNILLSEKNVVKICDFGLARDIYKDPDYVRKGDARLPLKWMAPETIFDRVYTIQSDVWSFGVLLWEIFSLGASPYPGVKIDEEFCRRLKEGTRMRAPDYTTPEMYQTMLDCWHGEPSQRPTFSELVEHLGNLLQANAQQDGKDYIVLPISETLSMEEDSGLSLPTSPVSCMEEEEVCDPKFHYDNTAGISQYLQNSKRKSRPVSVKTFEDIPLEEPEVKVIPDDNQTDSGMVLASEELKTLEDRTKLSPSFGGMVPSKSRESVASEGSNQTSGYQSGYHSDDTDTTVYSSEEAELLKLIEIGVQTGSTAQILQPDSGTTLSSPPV
Protocol: as §2, §3

Sequence of EGFR (P00533 25-1210): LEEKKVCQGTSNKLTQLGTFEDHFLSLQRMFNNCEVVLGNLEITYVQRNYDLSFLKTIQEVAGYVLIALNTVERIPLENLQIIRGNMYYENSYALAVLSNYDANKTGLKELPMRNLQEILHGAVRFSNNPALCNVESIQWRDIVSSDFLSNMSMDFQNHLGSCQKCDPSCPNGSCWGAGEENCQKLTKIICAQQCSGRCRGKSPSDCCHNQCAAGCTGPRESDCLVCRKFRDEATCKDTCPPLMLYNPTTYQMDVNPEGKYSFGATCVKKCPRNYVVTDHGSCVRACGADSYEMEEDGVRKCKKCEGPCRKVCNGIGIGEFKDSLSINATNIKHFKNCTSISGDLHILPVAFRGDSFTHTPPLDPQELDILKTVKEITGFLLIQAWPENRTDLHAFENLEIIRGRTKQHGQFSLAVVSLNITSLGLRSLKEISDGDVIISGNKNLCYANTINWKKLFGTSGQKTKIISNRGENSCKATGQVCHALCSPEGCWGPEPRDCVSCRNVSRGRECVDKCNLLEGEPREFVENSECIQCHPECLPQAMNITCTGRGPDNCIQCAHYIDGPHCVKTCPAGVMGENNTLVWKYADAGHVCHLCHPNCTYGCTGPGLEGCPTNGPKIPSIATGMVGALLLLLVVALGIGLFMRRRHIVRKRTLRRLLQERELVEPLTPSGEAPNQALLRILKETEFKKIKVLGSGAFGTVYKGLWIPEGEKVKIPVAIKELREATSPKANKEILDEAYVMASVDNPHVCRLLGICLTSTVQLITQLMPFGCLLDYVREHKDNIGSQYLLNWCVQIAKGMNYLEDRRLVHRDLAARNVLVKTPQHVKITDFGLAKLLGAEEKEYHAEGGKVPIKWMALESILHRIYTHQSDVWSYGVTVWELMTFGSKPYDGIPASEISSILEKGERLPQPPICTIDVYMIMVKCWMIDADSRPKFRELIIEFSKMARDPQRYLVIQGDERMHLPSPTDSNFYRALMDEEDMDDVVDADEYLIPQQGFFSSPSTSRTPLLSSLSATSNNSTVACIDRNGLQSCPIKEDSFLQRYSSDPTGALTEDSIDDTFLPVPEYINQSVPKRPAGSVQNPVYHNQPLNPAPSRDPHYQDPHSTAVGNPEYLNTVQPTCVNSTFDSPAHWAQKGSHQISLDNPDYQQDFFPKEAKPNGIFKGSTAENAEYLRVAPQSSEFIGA

Compound | IC50 (HCT116 cell line) | IC50 (MCF-7 cell line) | IC50 (B16 cell line) | melting point | IC50 (EGFR) | IC50 (VEGFR-2)
COc1cc2ncnc(Sc3cccc(NC(=S)Nc4ccc(F)c(F)c4)c3)c2cc1OC [Compound 10s, 1-(3,4-Difluorophenyl)-3-[3-(6,7-dimethoxyquinazolin-4-ylsulfanyl)phenyl]thiourea] | > 100 µM | 30.5 µM | 42.2 µM | 128.2 to 130.4 °C | 3.17 µM | 5.14 µM
COc1cc2ncnc(Sc3cccc(NC(=S)Nc4ccc(C)cc4)c3)c2cc1OC [Compound 10v, 1-p-tolyl-3-[3-(6,7-dimethoxyquinazolin-4-ylsulfanyl)phenyl]thiourea] | 83.2 µM | 28.9 µM | > 100 µM | 163.1 to 165 °C | > 10 µM | > 10 µM
COc1cc2ncnc(Oc3cccc(NC(=S)Nc4ccc(Cl)cc4)c3)c2cc1OC [Compound 10i, 1-(4-Chlorophenyl)-3-[3-(6,7-dimethoxyquinazolin-4-yloxy)phenyl]thiourea] | > 100 µM | 22.1 µM | 27.4 µM | 198.3 to 201 °C | 4.17 µM | > 10 µM
COc1cc2ncnc(Oc3cccc(NC(=S)Nc4ccc(F)cc4)c3)c2cc1OC [Compound 10j, 1-(4-Fluorophenyl)-3-[3-(6,7-dimethoxyquinazolin-4-yloxy)phenyl]thiourea] | 89.7 µM | 23.6 µM | 34.1 µM | 168.5 to 170 °C | 5.9 µM | 7.11 µM

Now those with a lower IC50 (HCT116 cell line), led by results:

IC50 (HCT116 cell line) | IC50 (MCF-7 cell line) | IC50 (B16 cell line) | melting point | IC50 (EGFR) | IC50 (VEGFR-2) | Compound
63.1 µM | 14.8 µM | 27.4 µM | 172.4 to 174 °C | 3.56 µM | > 10 µM | COc1cc2ncnc(Sc3cccc(NC(=S)Nc4ccc(Cl)cc4Cl)c3)c2cc1OC [Compound 10r, 1-(2,4-Dichlorophenyl)-3-[3-(6,7-dimethoxyquinazolin-4-ylsulfanyl)phenyl]thiourea]
27.3 µM | 21.3 µM | 61.2 µM | 152 to 153.2 °C | 5.35 µM | 6.62 µM | COc1cc2ncnc(Sc3cccc(NC(=S)Nc4ccc(F)cc4)c3)c2cc1OC [Compound 10u, 1-(4-Fluorophenyl)-3-[3-(6,7-dimethoxyquinazolin-4-ylsulfanyl)phenyl]thiourea]
15 µM | 18.8 µM | 8.49 µM | 122.8 to 125.6 °C | – | – | COc1cc2ncnc(Oc3cccc(NC(=S)Nc4cc(C(F)(F)F)cc(C(F)(F)F)c4)c3)c2cc1OC [Compound 10d, 1-(3,5-Ditrifluoromethylphenyl)-3-[3-(6,7-dimethoxyquinazolin-4-yloxy)phenyl]thiourea]
10 µM | 22.4 µM | 9.68 µM | – | 0.05 µM | 0.18 µM | COc1cc2ncnc(Oc3cccc(NC(=S)Nc4ccc(Br)c(C(F)(F)F)c4)c3)c2cc1OC [Compound 10c, 1-(4-Bromo-3-trifluoromethylphenyl)-3-[3-(6,7-dimethoxyquinazolin-4-yloxy)phenyl]thiourea]
9.03 µM | 21 µM | 12.9 µM | 127.5 to 131 °C | 0.07 µM | 0.27 µM | COc1cc2ncnc(Sc3cccc(NC(=S)Nc4cccc(C(F)(F)F)c4)c3)c2cc1OC [Compound 10p, 1-(3-Trifluoromethylphenyl)-3-[3-(6,7-dimethoxyquinazolin-4-ylsulfanyl)phenyl]thiourea]
8.79 µM | 25 µM | 9.33 µM | 128.4 to 130 °C | – | – | COc1cc2ncnc(Sc3cccc(NC(=S)Nc4ccc(F)c(C(F)(F)F)c4)c3)c2cc1OC [Compound 10l, 1-[3-(6,7-Dimethoxyquinazolin-4-ylsulfanyl)phenyl]-3-(4-fluoro-3-trifluoromethylphenyl) thiourea]
